# Values of other authors in patent US12636282B1 (priority 2020, dated 2026).
# Like-named read-outs stand apart in the source and are kept apart here.
# How the values were obtained:
# [1] = test system: lethal influenza infections; conditions: mice, lethal influenza infection
# COVID-19 = conditions: early uncontrolled study
# influenza = conditions: NAC 600 mg twice a day for 6 months; 79% with placebo
# Coxackievirus B = conditions: in vivo; through suppressing viral replication and inflammatory responses
compound,measurement,setting,value
CCOC(=O)C1=C[C@@H](OC(CC)CC)[C@H](NC(C)=O)[C@@H](N)C1 [oseltamivir],Survival,[1],60%
Tocilizumab: interleukin 6 (IL-6) receptor antibody,fever,COVID-19,rapidly reduction in fever
same,oxygenation,COVID-19,improvement in oxygenation
"CCN(CCO)CCCC(C)Nc1ccnc2cc(Cl)ccc12 (stereo not drawn) [HCQ, hydroxychloroquine]","Retinal toxicity, share of patients",after 6 years of HCQ use,1.8%
same,"Retinal toxicity, share of patients",after 11 years of HCQ use,3.3%
same,"Retinal toxicity, share of patients",after 16 years of HCQ use,11.5%
"CC(=O)N[C@@H](CS)C(=O)O [NAC, N-acetyl cysteine]",virus-infected subjects developing flu symptoms,influenza,25%
same,Coxackievirus B-induced myocarditis,Coxackievirus B,effectively alleviates
same,Survival,[1],20%
